Source: ChEMBL document CHEMBL1909046, “DrugMatrix in vitro pharmacology data”

Tests used:
[1] = DRUGMATRIX: GABAA, Muscimol, Central radioligand binding (ligand: [3H] Muscimol); assay type: cell membranes, Rattus norvegicus, Wistar, Brain, Membrane; conditions: Not Active = under 50% inhibition at 10 µM
[2] = DRUGMATRIX: Glutamate, AMPA radioligand binding (ligand: [3H] AMPA); assay type: cell membranes, Rattus norvegicus, Wistar, Cerebral cortex, Membrane; conditions: Not Active = under 50% inhibition at 10 µM
[3] = DRUGMATRIX: Imidazoline I2, Central radioligand binding (ligand: [3H] Idazoxan); assay type: cell membranes, Rattus norvegicus, Wistar, Cerebral cortex, Membrane; conditions: Not Active = under 50% inhibition at 10 µM
Substance-K receptor = molecular target: T1, Substance-K receptor (Homo sapiens, UniProt P21452); assay type: cell membranes, CHO, Membrane; conditions: cho; note: in other assays of this panel Not Active means under 50% inhibition at 10 µM
T1 sequence (P21452 whole entry): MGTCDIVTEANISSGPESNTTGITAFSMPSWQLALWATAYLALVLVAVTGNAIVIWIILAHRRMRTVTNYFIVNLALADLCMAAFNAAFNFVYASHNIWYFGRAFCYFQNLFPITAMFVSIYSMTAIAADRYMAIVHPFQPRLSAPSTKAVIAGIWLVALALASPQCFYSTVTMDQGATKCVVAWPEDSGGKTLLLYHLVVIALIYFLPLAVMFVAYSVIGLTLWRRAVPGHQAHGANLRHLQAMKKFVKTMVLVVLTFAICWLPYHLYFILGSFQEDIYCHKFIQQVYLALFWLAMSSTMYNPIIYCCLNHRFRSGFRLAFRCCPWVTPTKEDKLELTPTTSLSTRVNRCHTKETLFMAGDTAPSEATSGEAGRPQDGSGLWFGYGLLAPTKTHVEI

Melanocortin receptor 4 = Melanocortin receptor 4 (Homo sapiens, UniProt P32245); assay type: cell membranes, Membrane; conditions: hek293; note: in other assays of this panel Not Active means under 50% inhibition at 10 µM
Melanocortin receptor 4, sequence (P32245 whole entry): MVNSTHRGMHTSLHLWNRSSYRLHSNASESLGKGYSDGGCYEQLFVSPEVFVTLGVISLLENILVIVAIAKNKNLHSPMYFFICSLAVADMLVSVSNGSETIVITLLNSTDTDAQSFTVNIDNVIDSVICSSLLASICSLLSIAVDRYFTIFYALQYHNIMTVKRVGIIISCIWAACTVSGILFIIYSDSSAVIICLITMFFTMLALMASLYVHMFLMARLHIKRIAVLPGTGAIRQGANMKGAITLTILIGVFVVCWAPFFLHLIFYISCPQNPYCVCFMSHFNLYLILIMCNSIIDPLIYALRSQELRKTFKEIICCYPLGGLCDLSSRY

Histamine H2 receptor = Histamine H2 receptor (Homo sapiens, UniProt P25021); assay type: cell membranes, CHO-K1, Membrane; conditions: cho-k1; note: in other assays of this panel Not Active means under 50% inhibition at 10 µM
Histamine H2 receptor, sequence (P25021 whole entry): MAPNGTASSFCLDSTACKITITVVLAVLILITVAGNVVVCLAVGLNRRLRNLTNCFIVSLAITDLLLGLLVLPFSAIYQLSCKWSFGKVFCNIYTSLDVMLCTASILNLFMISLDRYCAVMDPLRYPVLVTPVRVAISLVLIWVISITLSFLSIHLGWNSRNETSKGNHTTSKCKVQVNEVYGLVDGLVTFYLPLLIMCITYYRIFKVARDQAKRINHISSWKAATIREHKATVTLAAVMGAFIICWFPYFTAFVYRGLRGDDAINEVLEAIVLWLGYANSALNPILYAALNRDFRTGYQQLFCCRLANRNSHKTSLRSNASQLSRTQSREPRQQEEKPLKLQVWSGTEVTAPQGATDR

Calcitonin receptor = molecular target: T2, Calcitonin receptor (Homo sapiens, UniProt P30988); assay type: cell membranes, Membrane; conditions: t47d; note: in other assays of this panel Not Active means under 50% inhibition at 10 µM
T2 sequence (P30988 whole entry): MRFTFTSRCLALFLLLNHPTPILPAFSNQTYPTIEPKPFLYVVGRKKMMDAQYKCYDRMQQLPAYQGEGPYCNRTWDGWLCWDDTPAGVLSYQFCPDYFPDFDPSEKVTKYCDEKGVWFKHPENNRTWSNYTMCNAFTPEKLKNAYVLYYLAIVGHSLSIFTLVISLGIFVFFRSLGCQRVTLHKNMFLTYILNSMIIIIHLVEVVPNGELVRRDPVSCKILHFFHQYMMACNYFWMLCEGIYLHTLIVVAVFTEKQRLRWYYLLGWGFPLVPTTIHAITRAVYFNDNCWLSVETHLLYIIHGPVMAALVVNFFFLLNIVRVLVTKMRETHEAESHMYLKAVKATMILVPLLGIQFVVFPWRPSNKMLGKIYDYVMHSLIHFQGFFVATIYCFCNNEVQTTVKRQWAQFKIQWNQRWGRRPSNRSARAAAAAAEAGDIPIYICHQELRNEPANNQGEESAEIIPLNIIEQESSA

Nc1nc(N)c2nc(CNc3ccc(C(=O)N[C@@H](CCC(=O)O)C(=O)O)cc3)cnc2n1 [AMINOPTERIN]
Not Active: IC50 [1] | Ki [1] | IC50 [2] | Ki [2] | IC50 [3] | Ki [3] | IC50 (Substance-K receptor) | IC50 (Melanocortin receptor 4) | IC50 (Histamine H2 receptor) | IC50 (Calcitonin receptor)

Nc1ccc(C(=O)O)c(O)c1 [AMINOSALICYLIC ACID]
Not Active: IC50 [1] | Ki [1] | IC50 [2] | Ki [2] | IC50 [3] | Ki [3] | IC50 (Substance-K receptor) | IC50 (Melanocortin receptor 4) | IC50 (Histamine H2 receptor) | IC50 (Calcitonin receptor)

C[C@@H]1[C@H](O)[C@@H](C)/C=C/C=C/C=C/C=C/C=C/C=C/C=C/[C@H](O[C@@H]2O[C@H](C)[C@@H](O)[C@H](N)[C@@H]2O)C[C@@H]2O[C@](O)(C[C@@H](O)C[C@@H](O)[C@H](O)CC[C@@H](O)C[C@@H](O)CC(=O)O[C@H]1C)C[C@H](O)[C@H]2C(=O)O [AMPHOTERICIN B]
Not Active: IC50 [1] | Ki [1] | IC50 [2] | Ki [2] | IC50 [3] | Ki [3] | IC50 (Substance-K receptor) | IC50 (Melanocortin receptor 4) | IC50 (Histamine H2 receptor) | IC50 (Calcitonin receptor)

CC(C)(C#N)c1cc(Cn2cncn2)cc(C(C)(C)C#N)c1 [ANASTROZOLE]
Not Active: IC50 [1] | Ki [1] | IC50 [2] | Ki [2] | IC50 [3] | Ki [3] | IC50 (Substance-K receptor) | IC50 (Melanocortin receptor 4) | IC50 (Histamine H2 receptor) | IC50 (Calcitonin receptor)

C[C@]12CC[C@@H](O)C[C@@H]1CC[C@@H]1[C@@H]2CC[C@]2(C)C(=O)CC[C@@H]12 [ANDROSTERONE]
Not Active: IC50 [1] | Ki [1] | IC50 [2] | Ki [2] | IC50 [3] | Ki [3] | IC50 (Substance-K receptor) | IC50 (Melanocortin receptor 4) | IC50 (Histamine H2 receptor) | IC50 (Calcitonin receptor)

CC(C)NCC(O)COc1ccc(CC(N)=O)cc1 (stereo not given) [ATENOLOL]
Not Active: IC50 [1] | Ki [1] | IC50 [2] | Ki [2] | IC50 [3] | Ki [3] | IC50 (Substance-K receptor) | IC50 (Melanocortin receptor 4) | IC50 (Histamine H2 receptor) | IC50 (Calcitonin receptor)

NCC(CC(=O)O)c1ccc(Cl)cc1 (stereo not given) [BACLOFEN]
Not Active: IC50 [1] | Ki [1] | IC50 [2] | Ki [2] | IC50 [3] | Ki [3] | IC50 (Substance-K receptor) | IC50 (Melanocortin receptor 4) | IC50 (Histamine H2 receptor) | IC50 (Calcitonin receptor)

O=C(O)c1ccccc1 [BENZOIC ACID]
Not Active: IC50 [1] | Ki [1] | IC50 [2] | Ki [2] | IC50 [3] | Ki [3] | IC50 (Substance-K receptor) | IC50 (Melanocortin receptor 4) | IC50 (Histamine H2 receptor) | IC50 (Calcitonin receptor)

c1ccc2sc(SSc3nc4ccccc4s3)nc2c1 [BENZOTHIAZYL DISULFIDE]
Not Active: IC50 [1] | Ki [1] | IC50 [2] | Ki [2] | IC50 [3] | Ki [3] | IC50 (Substance-K receptor) | IC50 (Melanocortin receptor 4) | IC50 (Histamine H2 receptor) | IC50 (Calcitonin receptor)

OC[C@H]1O[C@@H]2O[C@H]3[C@H](O)[C@@H](O)[C@@H](O[C@H]4[C@H](O)[C@@H](O)[C@@H](O[C@H]5[C@H](O)[C@@H](O)[C@@H](O[C@H]6[C@H](O)[C@@H](O)[C@@H](O[C@H]7[C@H](O)[C@@H](O)[C@@H](O[C@H]8[C@H](O)[C@@H](O)[C@@H](O[C@H]1[C@H](O)[C@H]2O)O[C@@H]8CO)O[C@@H]7CO)O[C@@H]6CO)O[C@@H]5CO)O[C@@H]4CO)O[C@@H]3CO [BETADEX]
Not Active: IC50 [1] | Ki [1] | IC50 [2] | Ki [2] | IC50 [3] | Ki [3] | IC50 (Substance-K receptor) | IC50 (Melanocortin receptor 4) | IC50 (Histamine H2 receptor) | IC50 (Calcitonin receptor)

C[C@H]1C[C@H]2[C@@H]3CCC4=CC(=O)C=C[C@]4(C)[C@@]3(F)[C@@H](O)C[C@]2(C)[C@@]1(O)C(=O)CO [BETAMETHASONE]
Not Active: IC50 [1] | Ki [1] | IC50 [2] | Ki [2] | IC50 [3] | Ki [3] | IC50 (Substance-K receptor) | IC50 (Melanocortin receptor 4) | IC50 (Histamine H2 receptor) | IC50 (Calcitonin receptor)

CC(C)(c1ccc(O)cc1)c1ccc(O)cc1 [BISPHENOL A]
Not Active: IC50 [1] | Ki [1] | IC50 [2] | Ki [2] | IC50 [3] | Ki [3] | IC50 (Substance-K receptor) | IC50 (Melanocortin receptor 4) | IC50 (Histamine H2 receptor) | IC50 (Calcitonin receptor)

Cc1c(N)nc([C@H](CC(N)=O)NC[C@H](N)C(N)=O)nc1C(=O)N[C@H](C(=O)N[C@H](C)[C@@H](O)[C@H](C)C(=O)N[C@H](C(=O)NCCc1nc(-c2nc(C(=O)NCCC[S+](C)C)cs2)cs1)[C@@H](C)O)[C@@H](O[C@@H]1O[C@@H](CO)[C@@H](O)[C@H](O)[C@@H]1O[C@H]1O[C@H](CO)[C@@H](O)[C@H](OC(N)=O)[C@@H]1O)c1c[nH]cn1.[Br-] [BLEOMYCIN A2]
Not Active: IC50 [1] | Ki [1] | IC50 [2] | Ki [2] | IC50 [3] | Ki [3] | IC50 (Substance-K receptor) | IC50 (Melanocortin receptor 4) | IC50 (Histamine H2 receptor) | IC50 (Calcitonin receptor)

CN(Cc1cc(Br)cc(Br)c1N)C1CCCCC1 [BROMHEXINE]
Not Active: IC50 [1] | Ki [1] | IC50 [2] | Ki [2] | IC50 [3] | Ki [3] | IC50 (Substance-K receptor) | IC50 (Melanocortin receptor 4) | IC50 (Histamine H2 receptor) | IC50 (Calcitonin receptor)

CC(N)Cc1c[nH]c2ccc(OCc3cccs3)cc12 (stereo not given) [BW-723C86]
Not Active: IC50 [1] | Ki [1] | IC50 [2] | Ki [2] | IC50 [3] | Ki [3] | IC50 (Substance-K receptor) | IC50 (Melanocortin receptor 4) | IC50 (Histamine H2 receptor) | IC50 (Calcitonin receptor)

CC12CCC(CC1=O)C2(C)C (stereo not given) [CAMPHOR]
Not Active: IC50 [1] | Ki [1] | IC50 [2] | Ki [2] | IC50 [3] | Ki [3] | IC50 (Substance-K receptor) | IC50 (Melanocortin receptor 4) | IC50 (Histamine H2 receptor) | IC50 (Calcitonin receptor)
